# Assay results taken from US20260297092A1, “PYRAZOLOPYRIMIDINE DERIVATIVES AS INHIBITORS OF NLRP3” (Takeda Pharmaceutical Company Limited, priority 2023, published 2026).
# How the values were obtained:
# [1] = system: NLRP3 inflammasome (IL-1β production in THP-1 cells); assay: IL-1β TR-FRET Assay (percentage of inhibition at 300 nM, 6 μM or 10 μM); type: cell-based, human; details: Homo sapiens, LPS priming, ATP activation; for inhibition at 0.3 µM: THP-1, 300 nM, read-out: IL-1β inhibitory rate at 300 nM (%); for inhibition at 6 µM: THP-1, 6 μM, read-out: IL-1β inhibitory rate at 6 μM (%)
# Method in brief: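 Percent inhibition of IL-1β used DMSO wells as 0% and 3 μM MCC-950 wells as full inhibition, with supernatant read by HTRF. Beforehand, IFN-γ-differentiated (25 ng/mL, 24 h), LPS-primed (50 ng/mL, 24 h) THP-1 cells received compound 30 min before inflammasome activation by 20 mM ATP for 2 h.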
# [2] = system: TNF-α (NF-κB pathway, THP-1 cells); assay: TNF-α Assay (IC50); type: cell-based, human; details: Homo sapiens, 600 ng/mL LPS, 3 hours
# Method in brief: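 Supernatant TNF-α quantified by ELISA after 3 h stimulation with 600 ng/mL LPS at 37 °C, following 30 min compound preincubation. Cells: IFN-differentiated (25 ng/mL, 24 h) THP-1 macrophages, 40,000/well, serum-free. IC50 by sigmoidal fit of % inhibition, with TPCA-1 as 100% control.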
Compound,inhibition at 0.3 µM [1] [%],IC50 [2] [µM],inhibition at 6 µM [1] [%]
"Cc1cc(C)c(-n2cc3c(=O)[nH]c(CCC(C)(F)F)nc3n2)c(O)c1 [Example 40, 6-(3,3-difluorobutyl)-2-(2-hydroxy-4,6-dimethylphenyl)-2,5-dihydro-4H-pyrazolo[3,4-d]pyrimidin-4-one]",100,> 30,
"COC(C)Cc1nc2nn(-c3c(C)cc(C)cc3O)cc2c(=O)[nH]1 (stereo not drawn) [Example 27, 2-(2-hydroxy-4,6-dimethylphenyl)-6-(2-methoxypropyl)-2,5-dihydro-4H-pyrazolo[3,4-d]pyrimidin-4-one]",94,> 30,
"O=c1[nH]c([C@@H]2COCCO2)nc2nn(-c3c(F)cc(C4CC4)cc3C(F)F)cc12 (single isomer, unassigned) [Example 313, 2-[4-cyclopropyl-2-(difluoromethyl)-6-fluorophenyl]-6-[(2S)-1,4-dioxan-2-yl]-2,5-dihydro-4H-pyrazolo[3,4-d]pyrimidin-4-one or 2-[4-cyclopropyl-2-(difluoromethyl)-6-fluorophenyl]-6-[(2R)-1,4-dioxan-2-yl]-2,5-dihydro-4H-pyrazolo[3,4-d]pyrimidin-4-one]",,> 30,104
"CCc1cc(C2(F)CC2)cc(C)c1-n1cc2c(=O)[nH]c(OC)nc2n1 [Example 301, 2-[2-ethyl-4-(1-fluorocyclopropyl)-6-methylphenyl]-6-methoxy-2,5-dihydro-4H-pyrazolo[3,4-d]pyrimidin-4-one]",,> 30,98
"CCOc1nc2nn(-c3c(F)cc(C4CC4)cc3C(F)F)cc2c(=O)[nH]1 [Example 110, 2-[4-cyclopropyl-2-(difluoromethyl)-6-fluorophenyl]-6-ethoxy-2,5-dihydro-4H-pyrazolo[3,4-d]pyrimidin-4-one]",99,> 30,
"COc1nc2nn(-c3c(C)cc(C)cc3O)cc2c(=O)[nH]1 [Example 3, 2-(2-hydroxy-4,6-dimethylphenyl)-6-methoxy-2,5-dihydro-4H-pyrazolo[3,4-d]pyrimidin-4-one]",94,> 30,
"CCOc1nc2nn(-c3c(C)cc(Br)cc3F)cc2c(=O)[nH]1 [Example 24, 2-(4-bromo-2-fluoro-6-methylphenyl)-6-ethoxy-2,5-dihydro-4H-pyrazolo[3,4-d]pyrimidin-4-one]",99,> 30,
"Cc1ccc(-n2nc3nc(-c4ccccn4)[nH]c(=O)c3c2C)c(O)c1 [Example 124, 2-(2-hydroxy-4-methylphenyl)-3-methyl-6-(pyridin-2-yl)-2,5-dihydro-4H-pyrazolo[3,4-d]pyrimidin-4-one]",97,> 30,
"COc1nc2nn(-c3c(C)cc(Br)cc3C(F)F)cc2c(=O)[nH]1 [Example 214, 2-[4-bromo-2-(difluoromethyl)-6-methylphenyl]-6-methoxy-2,5-dihydro-4H-pyrazolo[3,4-d]pyrimidin-4-one]",107,> 30,
"CCOc1nc2nn(-c3ccc(C(F)(F)F)cc3O)c(C)c2c(=O)[nH]1 [Example 59, 6-ethoxy-2-[2-hydroxy-4-(trifluoromethyl)phenyl]-3-methyl-2,5-dihydro-4H-pyrazolo[3,4-d]pyrimidin-4-one]",98,> 30,
"CCOc1nc2nn(-c3ncc(C4CC4)cc3C)cc2c(=O)[nH]1 [Example 154, 2-(5-cyclopropyl-3-methylpyridin-2-yl)-6-ethoxy-2,5-dihydro-4H-pyrazolo[3,4-d]pyrimidin-4-one]",93,> 30,
"CCOc1nc2nn(-c3c(F)cc(C)cc3Br)cc2c(=O)[nH]1 [Example 57, 2-(2-bromo-6-fluoro-4-methylphenyl)-6-ethoxy-2,5-dihydro-4H-pyrazolo[3,4-d]pyrimidin-4-one]",99,> 30,
"CCOc1nc2nn(-c3c(F)cc(C(F)(F)F)cc3Br)cc2c(=O)[nH]1 [Example 54, 2-[2-bromo-6-fluoro-4-(trifluoromethyl)phenyl]-6-ethoxy-2,5-dihydro-4H-pyrazolo[3,4-d]pyrimidin-4-one]",100,> 30,
"CCOc1nc2nn(-c3c(F)cc(Br)cc3C(F)(F)F)cc2c(=O)[nH]1 [Example 19, 2-[4-bromo-2-fluoro-6-(trifluoromethyl)phenyl]-6-ethoxy-2,5-dihydro-4H-pyrazolo[3,4-d]pyrimidin-4-one]",95,> 30,
"Cc1cc(C2CC2)cc(C)c1-n1cc2c(=O)[nH]c(-c3cnn(C)n3)nc2n1 [Example 258, 2-(4-cyclopropyl-2,6-dimethylphenyl)-6-(2-methyl-2H-1,2,3-triazol-4-yl)-2,5-dihydro-4H-pyrazolo[3,4-d]pyrimidin-4-one]",,> 30,100
"CCOc1nc2nn(-c3c(C)cc(F)cc3F)cc2c(=O)[nH]1 [Example 126, 2-(2,4-difluoro-6-methylphenyl)-6-ethoxy-2,5-dihydro-4H-pyrazolo[3,4-d]pyrimidin-4-one]",51,> 30,
"Cc1cc(C)c(-n2cc3c(=O)[nH]c(C(F)F)nc3n2)c(O)c1 [Example 94, 6-(difluoromethyl)-2-(2-hydroxy-4,6-dimethylphenyl)-2,5-dihydro-4H-pyrazolo[3,4-d]pyrimidin-4-one]",83,> 30,
"Cc1cc(C)c(-n2cc3c(=O)[nH]c(C4CN(C)CCO4)nc3n2)c(O)c1 (stereo not drawn) [Example 88, 2-(2-hydroxy-4,6-dimethylphenyl)-6-(4-methylmorpholin-2-yl)-2,5-dihydro-4H-pyrazolo[3,4-d]pyrimidin-4-one]",86,> 30,
"Cc1ccc(C)c(-n2cc3c(=O)[nH]c(-c4ccncn4)nc3n2)c1O [Example 41, 2-(2-hydroxy-3,6-dimethylphenyl)-6-(pyrimidin-4-yl)-2,5-dihydro-4H-pyrazolo[3,4-d]pyrimidin-4-one]",99,> 30,
"CCCOc1nc2nn(-c3c(C)cc(C)cc3O)cc2c(=O)[nH]1 [Example 4, 2-(2-hydroxy-4,6-dimethylphenyl)-6-propoxy-2,5-dihydro-4H-pyrazolo[3,4-d]pyrimidin-4-one]",92,> 30,
"CCOc1nc2nn(-c3c(C)cc(OC(F)(F)F)cc3F)cc2c(=O)[nH]1 [Example 125, 6-ethoxy-2-[2-fluoro-6-methyl-4-(trifluoromethoxy)phenyl]-2,5-dihydro-4H-pyrazolo[3,4-d]pyrimidin-4-one]",100,> 30,
"Cc1cc(-c2nc3nn(-c4c(C)cc(C5CC5)cc4C)cc3c(=O)[nH]2)no1 [Example 274, 2-(4-cyclopropyl-2,6-dimethylphenyl)-6-(5-methyl-1,2-oxazol-3-yl)-2,5-dihydro-4H-pyrazolo[3,4-d]pyrimidin-4-one]",,> 30,102
"Cc1cc(C2CC2)cc(C)c1-n1cc2c(=O)[nH]c(COC(F)F)nc2n1 [Example 224, 2-(4-cyclopropyl-2,6-dimethylphenyl)-6-[(difluoromethoxy)methyl]-2,5-dihydro-4H-pyrazolo[3,4-d]pyrimidin-4-one]",104,> 30,
"CCOc1nc2nn(-c3c(C)cc(C4CC4)cc3COC)cc2c(=O)[nH]1 [Example 164, 2-[4-cyclopropyl-2-(methoxymethyl)-6-methylphenyl]-6-ethoxy-2,5-dihydro-4H-pyrazolo[3,4-d]pyrimidin-4-one]",95,> 30,
"CCc1nc2nn(-c3c(F)cc(C4CC4)cc3C(F)F)cc2c(=O)[nH]1 [Example 295, 2-[4-cyclopropyl-2-(difluoromethyl)-6-fluorophenyl]-6-ethyl-2,5-dihydro-4H-pyrazolo[3,4-d]pyrimidin-4-one]",,> 30,105
"COCCc1nc2nn(-c3c(F)cc(C4CC4)cc3C(F)F)cc2c(=O)[nH]1 [Example 300, 2-[4-cyclopropyl-2-(difluoromethyl)-6-fluorophenyl]-6-(2-methoxyethyl)-2,5-dihydro-4H-pyrazolo[3,4-d]pyrimidin-4-one]",,> 30,99
"Cc1cc(C2CC2)cc(C)c1-n1cc2c(=O)[nH]c(CC#N)nc2n1 [Example 317, [2-(4-cyclopropyl-2,6-dimethylphenyl)-4-oxo-4,5-dihydro-2H-pyrazolo[3,4-d]pyrimidin-6-yl]acetonitrile]",,> 30,100
"CCOc1nc2nn(-c3c(O)cc(C)cc3C3CC3)cc2c(=O)[nH]1 [Example 11, 2-(2-cyclopropyl-6-hydroxy-4-methylphenyl)-6-ethoxy-2,5-dihydro-4H-pyrazolo[3,4-d]pyrimidin-4-one]",99,> 30,
"Cc1cc(C)c(-n2cc3c(=O)[nH]c(C4(C)CCCCO4)nc3n2)c(O)c1 (stereo not drawn) [Example 90, 2-(2-hydroxy-4,6-dimethylphenyl)-6-(2-methyloxan-2-yl)-2,5-dihydro-4H-pyrazolo[3,4-d]pyrimidin-4-one]",85,> 30,
"COc1nc2nn(-c3c(C)cc(C4CC4)cc3C)cc2c(=O)[nH]1 [Example 146, 2-(4-cyclopropyl-2,6-dimethylphenyl)-6-methoxy-2,5-dihydro-4H-pyrazolo[3,4-d]pyrimidin-4-one]",94,> 30,
